Assay results published in patent US8754047B2, “Peptide compositions and methods of use” (The Research Foundation for the State University of New York, priority 2008, dated 2014).
Several values for one entry are separate records, joined by “and”; a condition that tells them apart may be missing. Equal entries are not always repeated. Entries after “also recorded” stand apart in the source; their conditions may differ. Positions of bridges follow the written chain, without caps; N, C: chain ends. Residues, ends and D or L forms follow the SMILES beside them.

Assays:
[1] = tested on: SW480 human colon cancer cells; experiment: In vitro cell viability assay by MTT / cell Titer-Glo, SW480; details: 24 h
Procedure: 10,000 HT29 or SW480 human colon cancer cells, BxPC-3 human pancreatic cancer cells, and MCF7 and MDA-MB-231 breast cancer cells were obtained from American Type Culture Collection (ATTC), Manassas, Va., and were seeded in separate 96-well plates. After treatment with various concentrations (6.25 μM, 12.5 μM, 25 μM, 50 μM, 100 μM, or 200 μM) of test peptide for 24 h, cells were stained with MTT (3-(4,5-Dimethyl-2-thiazolyl)-2,5-diphenyl-2H-tetrazolium bromide, from Sigma-Aldrich) following the instructions of the manufacturer. Before dissolving MTT in SDS, the HT29 and SW480 cells were photographed using a digital camera connected with a phase-contrast microscope. (FIG. 2A1-8, and FIG. 2B1-6). Cells that are alive convert MTT into formazan in their active mitochondria and appear dark purple; dead cells are not stained by MTT and appear colorless.
The IC50 is the concentration of the test agent that inhibits cell growth by 50% at 24 hours of exposure. IC50s were determined using the MTT assay or using the cell Titer-Glo method and following the instructions of the manufacturer ([…]). […] (Sun, Y., and Rigas, B., (2008), Cancer Res., 68(20): 8269-8277).
The effect of peptide YJB02 on SW480 colon cancer cells was compared to the effect of peptide YJB02 on the normal human colon epithelial cell line NCM460. […] The viability was determined as described in Example 2.

[2] = tested on: HT29 human colon cancer cells; assay type: cell-based; details: inhibits cell growth by 50% at 24 hours of exposure; MTT or cell Titer-Glo; read-out: IC50s, HT29
Source text: (FIG. 2A1-8, and FIG. 2B1-6).

[3] = tested on: SW480 human colon cancer cell xenografts; experiment: In vivo xenograft assay of tumor size, SCID mice; details: 100 μg intraperitoneally once a day, 10 days, one mouse
Procedure: Immunodeficient SCID mice (from Jackson Lab) were transplanted subcutaneously to their flank with 1.5 million SW480 human colon cancer cells. After the tumor size reached 120-150 mm^3, one mouse was treated with 100 μg YJB01 peptide injected intraperitoneally once a day, and the other one was treated with DMSO as a vehicle control. The tumor size was measured every two days (see FIG. 3A and FIG. 3B). The tumor volume was calculated based on its length (L) and width (W) using the formula Tumor volume=LW(L+W/2)0.56. (Rigas, B., and Kozoni, V., (2008) International Journal of Oncology, 32: 97-100). On the 10th day of treatment, the tumor volume was determined, the SCID mice were sacrificed and the tumors were excised and their weight was recorded (FIG. 3B).

[4] = tested on: SW480 human colon cancer cells; experiment: Annexin V-FITC flow cytometry for apoptotic cells, SW480; assay type: cell-based; details: 24 hrs, 0 μM to 200 μM
Procedure: (§1) SW480 human colon cancer cells and MCF7 breast cancer cells were grown following the instructions of American Type Culture Collection (ATCC, Monassas, Va.). The cells were treated with the test peptides (YJB01, YJB05, or YJB06) for 24 hrs at concentrations ranging from 0 μM, to 200 μM. After treatment, cells were trypsinized and stained with Annexin V-FITC (100× dilution) for 15 minutes. Annexin V-FITC fluorescence intensities were analyzed by FACSCaliber (BD Bioscience) following standard protocols. Annexin V (+) cells are apoptotic cells.
(§2) When cells undergo apoptosis, the inner membrane phospholipid, phosphotidylserine (PS), flips to the outer membrane and can be recognized by the […]. The green FITC fluorescence can be determined by flow cytometry and thus Annexin V (+) cells are apoptotic cells.
as §1, with “In this study, SW480” for “SW480”, “human” for “human colon”, “treatment” for “treatment,”, “protocols.” for “protocols. Annexin V (+) cells are apoptotic cells.”

[5] = tested on: MCF-7 human breast cancer cells; experiment: Annexin V-FITC flow cytometry for apoptotic cells, MCF7; assay type: cell-based; details: 24 hrs, 0 μM to 200 μM
Procedure: as §1, §2
as §1, with “In this study, SW480” for “SW480”, “human” for “human colon”, “treatment” for “treatment,”, “protocols.” for “protocols. Annexin V (+) cells are apoptotic cells.”

peroxiredoxin 1 = experiment: Oxidized peroxiredoxin 1 (Prx-O3) immunoblot in SW480 cells; assay type: cell-based, human; details: 1 h, YJB01 20 μM and 100 μM, YJB05 100 μM
Procedure: (§3) The oxidized peroxiredoxin 1 (sulphonic-peroxiredoxin, Prx-O3) was detected by using the specific anti-Prx-O3 antibody. Briefly, after SW480 cells were treated with either no peptide, with YBJ01 (at 20 μM and 100 μM), or with YJB05 (at 100 μM) for 1 h, total cell lysates were collected and separated on the SDS-PAGE gel. The gel was electroblotted onto a nitrocellulose membrane and probed with anti-Prx-O3, followed by HRP-conjugated secondary antibody. Bands corresponding to sulphonic-peroxiredoxin were visualized by ECL
as §3, with “anti-Prx-O3 antibody” for “anti-Prx-O3 antibody.”, “with YBJ05” for “with YJB05”

[6] = tested on: SW480 human colon cancer xenografts; experiment: SW480 human colon cancer xenografts in nude mice, tumor volume; assay type: in vivo; details: for reduction in tumor volume: vs vehicle
Procedure: (§4) Xenografts were generated as described in FIG. 3A-B and Example 3 except where noted. Each animal had two xenografts, one on its right flank and one on the left. In these studies, the effect of two doses of YJB01, 100 μg and 500 μg per animal were evaluated. The doses were administrated intraperitoneally once a day dissolved in phosphate buffered saline (PBS). Control animals were injected with PBS. Tumor volume was determined as described in Example 3. Tumor volume is expressed as mean±SEM.
as §4, with “the” for “FIG. 3A-B and”
Xenografts were generated as described in the Example 3 except that 8 Balb/c nude mice in each group were used in this experiment. Nude mice bearing SW480 xenografts were treated with 500 μg/day of YJB02 for 19 days. The doses were administrated intraperitoneally once a day dissolved in phosphate buffered saline (PBS). Control animals were treated with PBS.
Tumor volume was determined as described in Example 3. Tumor volume was monitored and graphed as set forth in FIG. 9A, and is expressed as mean±SEM.

[7] = 500 μg intraperitoneally once a day for 10 days

For `CC[C@H](C)[C@H](NC(=O)[C@H](CCCCN)NC(=O)[C@@H](NC(=O)[C@H](CCC(N)=O)NC(=O)[C@H](CCCNC(=N)N)NC(=O)[C@@H]1CCCN1C(=O)[C@H](CCCCN)NC(=O)[C@@H]1CSSC[C@H](NC(=O)[C@H](Cc2c[nH]c3ccccc23)NC(=O)[C@@H](NC(=O)[C@H](C)N)[C@@H](C)O)C(=O)NCC(=O)N2CCC[C@H]2C(=O)N1)[C@@H](C)CC)C(=O)N[C@@H](Cc1c[nH]c2ccccc12)C(=O)N[C@@H](Cc1ccccc1)C(=O)N[C@@H](CCC(N)=O)C(=O)N[C@@H](CC(N)=O)C(=O)N[C@@H](CCCNC(=N)N)C(=O)N[C@@H](CCCNC(=N)N)C(=O)N[C@@H](CCSC)C(=O)N[C@@H](CCCCN)C(=O)N[C@@H](Cc1c[nH]c2ccccc12)C(=O)N[C@@H](CCCCN)C(=O)N[C@@H](CCCCN)C(=O)O` [YJB01] (H-ATWCGPCKPRQIKIWFQNRRMKWKK-OH; disulfide 4-7; N-terminus and C-terminus assumed), the IC50 [1] was 34.7 µM, the IC50 [2] was 89 µM and the “tumor growth at day 10 comparing with day 1” value [3] was −0.04% and −4%. The “apoptosis, Annexin V (+) cells, SW480” value [4] was “cell killing effect”, the “apoptosis, Annexin V (+) cells, MCF7” value [5] was “cell killing effect” and the “induction of the oxidized form of peroxiredoxin 1” value (peroxiredoxin 1) was “induced the oxidized form of peroxiredoxin; also recorded: capable of inducing oxidation”. For the same compound, the “reduction in tumor volume” value ([6]; 100 μg intraperitoneally once a day for 21 days) was 32%, the tumor volume ([6]; 100 μg intraperitoneally once a day for 21 days, vehicle 776 mm^3) was 527 mm^3 and the “tumor volume compared to its baseline” value [6, 7] was “caused tumor regression”. For the same compound, the “reduction in tumor volume” value [6, 7] was 60% and the tumor volume ([6]; 500 μg intraperitoneally once a day for 10 days, vehicle 257 mm^3) was 102 mm^3.
